From patent US10669263B2, “Substituted benzimidazole derivative as a modulator of TNF activity” (UCB Biopharma SRL, priority 2016, dated 2020)
“And” between values parts separate entries of the source, which are not always exact repeats. Equal entries are not always repeated.

How the values were obtained:
TNFα [1] = molecular target: T1, TNFα (Homo sapiens, UniProt P01375); assay: Fluorescence polarisation assay: inhibition of binding of fluorescence conjugate to TNFα; conditions: 10 nM TNFα, 10 nM fluorescence conjugate, 60 minutes pre-incubation, then 20 hours at ambient temperature
Method: Fluorescence Polarisation Assay
Inhibition of Binding of Fluorescence Conjugate to TNFα
Compounds were tested at 10 concentrations starting from 25 μM in a final assay concentration of 5% DMSO, by pre-incubation with TNFα for 60 minutes at ambient temperature in 20 mM Tris, 150 mM NaCl, 0.05% Tween 20, before addition of the fluorescence conjugate and a further incubation for 20 hours at ambient temperature. The final concentrations of TNFα and the fluorescence conjugate were 10 nM and 10 nM respectively in a total assay volume of 25 μL. Plates were read on a plate reader capable of detecting fluorescence polarisation (e.g. an Analyst HT plate reader; or an Envision plate reader). An IC50 value was calculated using XLfit™ (4 parameter logistic model) in ActivityBase.

TNFα [2] = molecular target: T1, TNFα; assay: Reporter gene assay (HEK-293 bioassay): inhibition of TNFα-induced NF-κB activation in HEK-Blue CD40L cells; assay type: cell-based; conditions: 0.5 ng/mL TNFα, 60 minutes preincubation, 18 h incubation, read-out: IC50 value, inhibition of TNFα-induced NF-κB activation (SEAP reporter)
Text: The compounds in accordance with the present invention potently neutralise the activity of TNFα in a commercially available HEK-293 derived reporter cell line known as HEK-Blue™ CD40L. This is a stable HEK-293 transfected cell line expressing SEAP (secreted embryonic alkaline phosphatase) under the control of the IFNβ minimal promoter fused to five NF-κB binding sites. Secretion of SEAP by these cells is stimulated in a concentration-dependent manner by TNFα.
Inhibition of TNFα-induced NF-κB Activation
Stimulation of HEK-293 cells by TNFα leads to activation of the NF-κB pathway. The reporter cell line used to determine TNFα activity was purchased from InvivoGen. HEK-Blue™ CD40L is a stable HEK-293 transfected cell line expressing SEAP (secreted embryonic alkaline phosphatase) under the control of the IFNβ minimal promoter fused to five NF-κB binding sites. Secretion of SEAP by these cells is stimulated in a dose-dependent manner by TNFα, with an EC50 of 0.5 ng/mL for human TNFα. […] SEAP activity was determined in the supernatant using a colorimetric substrate, e.g. QUANTI-Blue™ or HEK-Blue™ Detection media (InvivoGen). Percentage inhibitions for compound dilutions were calculated between a DMSO control and maximum inhibition (by excess control compound) and an IC50 value calculated using XLfit™ (4 parameter logistic model) in ActivityBase.

T1 sequence (P01375 77-233 limits assumed): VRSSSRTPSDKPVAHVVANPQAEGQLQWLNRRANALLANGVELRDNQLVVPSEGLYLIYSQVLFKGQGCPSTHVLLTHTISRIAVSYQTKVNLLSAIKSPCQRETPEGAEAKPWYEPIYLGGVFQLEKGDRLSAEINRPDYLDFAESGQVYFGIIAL

SMILES: Cc1nc2ccc(-c3cnc(C(C)(C)O)nc3)cc2n1Cc1c(F)cccc1OC(F)F [Example 1, 2-(5-{1-[2-(Difluoromethoxy)-6-fluorobenzyl]-2-methyl-1H-benzimidazol-6-yl}-pyrimidin-2-yl)propan-2-ol]
- IC50 (TNFα [1]): < 20 nM and 0.1 to 20 nM
- IC50 (TNFα [2]): < 50 nM and 0.5 to 50 nM
